In patent US6949544B2, “Inhibitors of c-Jun N-terminal kinases (JNK) and other protein kinases” (Vertex Pharmaceuticals Incorporated, priority 2001, dated 2005):

What was measured:
Assay type in all cases: biochemical
[1] = molecular target: T1, activated JNK3 (Homo sapiens, UniProt P53779); assay: JNK inhibition assay (spectrophotometric coupled-enzyme assay); conditions: for Ki: 10 nM activated JNK3, 10 μM ATP, read-out: Activity in the JNK3 Inhibition Assay (Ki rating A-C)
T1 construct: One such construct encodes amino acid residues Ser40-Glu402 of JNK3α1 and is preceded by Met and Gly residues; Met-Gly (initiator methionine and added glycine) (N); made in house; host or cells: E. coli BL21 (DE3)
T1 sequence (P53779 40-402): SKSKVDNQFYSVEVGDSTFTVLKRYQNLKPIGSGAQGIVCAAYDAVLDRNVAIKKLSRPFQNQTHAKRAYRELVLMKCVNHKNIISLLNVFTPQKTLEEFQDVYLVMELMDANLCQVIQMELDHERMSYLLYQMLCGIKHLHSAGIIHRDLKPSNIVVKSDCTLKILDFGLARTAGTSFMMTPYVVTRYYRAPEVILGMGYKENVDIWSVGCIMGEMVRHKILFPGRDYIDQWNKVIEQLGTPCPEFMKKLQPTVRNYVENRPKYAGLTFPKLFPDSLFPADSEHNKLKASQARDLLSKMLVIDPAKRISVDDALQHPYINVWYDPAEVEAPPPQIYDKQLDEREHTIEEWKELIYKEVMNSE
Description: A BLAST search of the EST database using the published JNK3α1 cDNA as a query identified an EST clone (#632588) that contained the entire coding sequence for human JNK3α1. Polymerase chain reactions (PCR) using pfu polymerase (Strategene) were used to introduce restriction sites into the cDNA for cloning into the pET-15B expression vector at the NcoI and BamHI sites. The protein was expressed in E. coli. […] This truncation corresponds to Ser 2 of JNK1 and JNK2 proteins, and is preceded by a methionine (initiation) and a glycine residue. The glycine residue was added in order to introduce an NcoI site for cloning into the expression vector. In addition, systematic C-terminal truncations were performed by PCR to identify a construct that give rise to diffraction-quality crystals.
5 mg of JNK3 was diluted to 0.5 mg/ml in 50 mM HEPES buffer, pH 7.5, containing 100 mM NaCl, 5 mM DTT, 20 mM MgCl2 and 1 mM ATP. GST-MKK7(DD) was added at a molar ratio of 1:2.5 GST-MKK7:JNK3. After incubation for 30 minutes at 25° C., the reaction mixture was concentrated 5-fold by ultrafiltration in a Centriprep-30 (Amicon, Beverly, Mass.), diluted to 10 ml and an additional 1 mM ATP added. This procedure was repeated three times to remove ADP and replenish ATP. The final addition of ATP was 5 mM and the mixture incubated overnight at 4° C.
The activated JNK3/GST-MKK7(DD) reaction mixture was exchanged into 50 mM HEPES buffer, pH 7.5, containing 5 mM DTT and 5% glycerol (w/v) by dialysis or ultrafiltration. The reaction mixture was adjusted to 1.1 M potassium phosphate, pH 7.5, and purified by hydrophobic interaction chromatography (at 25° C.) using a Rainin Hydropore column. […] Activated JNK3 (i.e. doubly phosphorylated JNK3) was stored at −70° C. at 0.25-1 mg/ml.
Compounds were assayed for the inhibition of JNK3 by a spectrophotometric coupled-enzyme assay. In this assay, a fixed concentration of activated JNK3 (10 nM) was incubated with various concentrations of a potential inhibitor dissolved in DMSO for 10 minutes at 30° C. in a buffer containing 0.1 M HEPES buffer, pH 7.5, containing 10 mM MgCl2, 2.5 mM phosphoenolpyruvate, 200 μM NADH, 150 μg/mL pyruvate kinase, 50 μg/mL lactate dehydrogenase, and 200 μM EGF receptor peptide. […] The reaction was initiated by the addition of 10 μM ATP and the assay plate is inserted into the spectrophotometer's assay plate compartment that was maintained at 30° C. The decrease of absorbance at 340 nm was monitored as a function of time. The rate data as a function of inhibitor concentration was fitted to competitive inhibition kinetic model to determine the Ki.

[2] = molecular target: Glycogen Synthase Kinase 3 (GSK-3) (Homo sapiens, UniProt P49841); assay: GSK-3 inhibition assay (standard coupled enzyme assay); conditions: 60 nM GSK-3, 10 μM ATP; read-out: GSK-3 Inhibitory Activity (Ki rating A-C)
Chain of Glycogen Synthase Kinase 3 (GSK-3) (P49841 whole entry): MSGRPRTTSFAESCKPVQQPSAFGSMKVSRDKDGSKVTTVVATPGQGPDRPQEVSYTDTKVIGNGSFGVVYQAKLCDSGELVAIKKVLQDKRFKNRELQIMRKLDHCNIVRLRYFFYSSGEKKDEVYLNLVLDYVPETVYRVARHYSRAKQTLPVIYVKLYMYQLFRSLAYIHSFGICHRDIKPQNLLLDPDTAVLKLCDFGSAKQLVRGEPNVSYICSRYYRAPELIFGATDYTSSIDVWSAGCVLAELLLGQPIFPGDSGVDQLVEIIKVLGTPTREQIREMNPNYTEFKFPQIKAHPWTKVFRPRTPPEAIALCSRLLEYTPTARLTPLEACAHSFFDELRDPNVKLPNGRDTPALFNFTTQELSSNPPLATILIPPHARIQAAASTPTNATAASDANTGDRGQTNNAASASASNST
Procedure: Compounds were screened in the following manner for their ability to inhibit Glycogen Synthase Kinase 3 (GSK-3) using a standard coupled enzyme assay (Fox et al (1998) Protein Sci 7, 2249). To an assay stock buffer solution containing 0.1M HEPES 7.5, 10 mM MgCl2, 25 mM NaCl, 2.5 mM phosphoenolpyruvate, 300 μM NADH, 1 mM DTT, 30 μg/mL pyruvate kinase, 10 μg/mL lactate dehydrogenase, 300 μM peptide (HSSPHQp-SEDEEE, American Peptide, Sunnyvale, Calif.), and 60 nM GSK-3, was added a 30 μM solution of the compound in DMSO and the resulting mixture incubated at 30° C. for 5 min. The reaction was initiated by the addition of 10 μM ATP. The rates of reaction were obtained by monitoring absorbance at 340 nm over a 5 minute read time at 30° C. using a Molecular Devices plate reader (Sunnyvale, Calif.). The IC50 was determined from the rate data as a function of inhibitor concentration.

[3] = molecular target: CDK-2/Cyclin A (Homo sapiens, UniProt P24941); assay: CDK2 inhibition assay (standard coupled enzyme assay); conditions: 25 nM CDK-2/Cyclin A; read-out: CDK2 Inhibitory Activity (Ki rating A-C)
Procedure: Compounds were screened in the following manner for their ability to inhibit CDK2 using a standard coupled enzyme assay (Fox et al (1998) Protein Sci 7, 2249).
To an assay stock buffer solution containing 0.1M HEPES 7.5, 10 mM MgCl2, 1 mM DTT, 25 mM NaCl, 2.5 mM phosphoenolpyruvate, […], […], […], […], and 100 μM peptide ([…], American Peptide, Sunnyvale, Calif.) was added a DMSO solution of a compound of the present invention to a final concentration of 30 μM. The resulting mixture was incubated at 30° C. for 10 minutes.
The reaction was initiated by the addition of 10 μL of CDK-2/Cyclin A stock solution to give a final concentration of 25 nM in the assay. The rates of reaction were obtained by monitoring absorbance at 340 nm over a 5-minute read time at 30° C. using a BioRad Ultramark plate reader (Hercules, Calif.). The Ki values were determined from the rate data as a function of inhibitor concentration.

[4] = molecular target: T2, Lck kinase purified from bovine thymus (Bos taurus, UniProt Q3ZCM0); assay: Lck inhibition assay (33P incorporation into poly Glu-Tyr); conditions: 10 μM ATP; read-out: Activity in the Lck Inhibition Assay (Ki rating A-C)
T2 construct: Lck kinase purified from bovine thymus; purchased Upstate Biotechnology 14-106; host or cells: bovine thymus (tissue-purified)
T2 sequence (Q3ZCM0 1-509): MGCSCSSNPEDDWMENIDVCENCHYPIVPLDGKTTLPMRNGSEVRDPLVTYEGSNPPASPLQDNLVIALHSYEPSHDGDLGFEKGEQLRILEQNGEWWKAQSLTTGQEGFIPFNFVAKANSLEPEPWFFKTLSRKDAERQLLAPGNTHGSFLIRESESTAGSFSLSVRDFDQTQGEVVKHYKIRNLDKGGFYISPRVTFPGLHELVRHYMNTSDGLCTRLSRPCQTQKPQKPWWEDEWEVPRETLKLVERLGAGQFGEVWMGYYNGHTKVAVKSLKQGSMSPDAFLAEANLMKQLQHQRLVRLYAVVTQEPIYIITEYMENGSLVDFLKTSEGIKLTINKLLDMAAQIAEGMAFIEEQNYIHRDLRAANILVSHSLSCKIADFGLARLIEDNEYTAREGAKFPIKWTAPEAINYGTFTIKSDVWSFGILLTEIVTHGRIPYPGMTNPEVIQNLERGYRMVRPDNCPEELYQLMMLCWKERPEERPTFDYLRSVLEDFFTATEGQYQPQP
Procedure: The compounds were assayed as inhibitors of Lck kinase purified from bovine thymus (from Upstate Biotechnology, cat. no. 14-106). Lck kinase activity was monitored by following the incorporation of ^33P from ATP into the tyrosine of a random poly Glu-Tyr polymer substrate of composition, Glu:Tyr=4:1 (Sigma, cat. no. P-0275). The following were the final concentrations of the assay components: 0.05 M HEPES, pH 7.6, 10 mM MgCl2, 2 mM DTT, 0.25 mg/ml BSA, 10 μM ATP (1-2 μCi ^33P-ATP per reaction), 5 mg/ml poly Glu-Tyr, and 1-2 units of lck kinase. In a typical assay, all the reaction components with the exception of ATP were pre-mixed and aliquoted into assay plate wells. […] The assay plate was incubated at 30° C. for 10 min before initiating the reaction with ^33P-ATP. After 20 min of reaction, the reactions were quenched with 150 μl of 10% trichloroacetic acid (TCA) containing 20 mM Na3PO4. The quenched samples were then transferred to a 96-well filter plate (Whatman, UNI-Filter GF/F Glass Fiber Filter, cat no. 7700-3310) installed on a filter plate vacuum manifold. Filter plates were washed four times with 10% TCA containing 20 mM Na3PO4 and then 4 times with methanol. 200 μl of scintillation fluid was then added to each well. The plates were sealed and the amount of radioactivity associated with the filters was quantified on a TopCount scintillation counter.

Ki [1] [µM] | Ki [2] [µM] | Ki [3] [µM] | Ki [4] [µM] | SMILES | Activity in the JNK3 Inhibition Assay (percent inhibition rating D-F) ([1]; at a 2 μM inhibitor concentration)
0.1 to 1 | > 1 | > 5 |  | COc1cc(-c2ccnc(Nc3ccccc3F)n2)cc(OC)c1OC [Compound I-5] | 
< 0.1 | 0.1 to 1 | > 5 |  | COc1cc(-c2ccnc(Nc3ccc(Cl)cc3)n2)cc(OC)c1OC [Compound I-9] | 
0.1 to 1 | 0.1 to 1 | > 5 |  | COc1cc(-c2ccnc(Nc3nc(C)cs3)n2)cc(OC)c1OC [Compound I-10] | 
< 0.1 | < 0.1 | > 5 |  | COc1cc(-c2ccnc(Nc3cccc(Cl)c3)n2)cc(OC)c1OC [Compound I-18] | 
< 0.1 | 0.1 to 1 | > 5 |  | COc1cccc(Nc2nccc(-c3cc(OC)c(OC)c(OC)c3)n2)c1 [Compound I-20] | 
< 0.1 | > 1 | > 5 |  | COc1cc(-c2ccnc(Nc3cc(F)c(F)c(F)c3)n2)cc(OC)c1OC [Compound I-22] | 
< 0.1 | < 0.1 | > 5 |  | COc1ccc(Nc2nccc(-c3cc(OC)c(OC)c(OC)c3)n2)cc1Cl [Compound I-35] | 
> 1 | > 1 |  |  | COc1cc(-c2ccnc(NCc3ccccc3)n2)cc(OC)c1OC [Compound I-37] | 
< 0.1 | < 0.1 | > 5 |  | COc1cc(-c2ccnc(Nc3cccc(OCc4ccccc4)c3)n2)cc(OC)c1OC [Compound I-38] | 
< 0.1 | 0.1 to 1 | > 5 |  | COc1cc(-c2ccnc(Nc3cccc(Cl)c3)n2)cc(OC)c1OCCN1CCOCC1 [Compound I-39, (3-Chlorophenyl)-(4[3,5-dimethoxy-4-(2-morpholin-4-yl-ethoxy)phenyl]pyrimidin-2-yl)-amine] | 
0.1 to 1 | 0.1 to 1 | > 5 |  | COc1c(Cl)cc(-c2ccnc(Nc3cccc(Cl)c3)n2)cc1Cl [Compound I-41] | 
< 0.1 | > 1 | > 5 |  | COc1c(C)cc(-c2ccnc(Nc3cccc(Cl)c3)n2)cc1C [Compound I-42] | 
0.1 to 1 | 0.1 to 1 | > 5 |  | COc1c(Br)cc(-c2ccnc(Nc3cccc(Cl)c3)n2)cc1Br [Compound I-43] | 
< 0.1 | 0.1 to 1 | > 5 |  | COc1cccc(Nc2nccc(-c3cc(OC)c(OCCN4CCOCC4)c(OC)c3)n2)c1 [Compound I-49] | 
< 0.1 | 0.1 to 1 | > 5 |  | COc1cccc(Nc2nccc(-c3cc(Cl)c(OC)c(Cl)c3)n2)c1 [Compound I-51] | 
< 0.1 | 0.1 to 1 |  |  | COc1cccc(Nc2nccc(-c3cc(C)c(OC)c(C)c3)n2)c1 [Compound I-52] | 

Ki [1] [µM] | Ki [2] [µM] | Ki [3] [µM] | Ki [4] [µM] | SMILES | Activity in the JNK3 Inhibition Assay (percent inhibition rating D-F) ([1]; at a 2 μM inhibitor concentration)
> 1 | > 1 |  |  | COc1cc(-c2ccnc(Nc3nnc(C)s3)n2)cc(OC)c1OC [Compound I-83] | 
0.1 to 1 | > 1 |  |  | COc1cc(-c2ccnc(Nc3onc(C)c3C)n2)cc(OC)c1OC [Compound I-87] | 
0.1 to 1 | > 1 |  |  | COc1cc(-c2ccnc(Nc3cc(C)n[nH]3)n2)cc(OC)c1OC [Compound I-88] | 
 | > 1 |  |  | CCc1ccc(Nc2cc(-c3cc(OC)c(OC)c(OC)c3)ccn2)cc1 [Compound I-158] | 
 | 0.1 to 1 |  |  | COc1cc(-c2ccnc(Nc3ccc(F)cc3F)c2)cc(OC)c1OC [Compound I-159] | 
 | > 1 |  |  | COc1cc(-c2ccnc(Nc3ccc(F)c(F)c3)c2)cc(OC)c1OC [Compound I-160] | 
 | > 1 |  | > 1 | COc1c(-c2ccnc(Nc3cccc(OCc4ccccc4)c3)n2)ccc2c1OCCO2 [II-18] | 
 | < 0.1 |  | < 0.1 | COc1ccc(-c2ccnc(Nc3cccc(Oc4cccc([N+](=O)[O-])c4)c3)n2)c(OC)c1OC [II-25] | 
 | < 0.1 |  | < 0.1 | COc1ccc(-c2ccnc(Nc3cccc(Oc4cccc(N)c4)c3)n2)c(OC)c1OC [II-26] | 
< 0.1 | 0.1 to 1 |  | > 1 | COc1ccc(-c2ccnc(Nc3ncnc(Nc4ccccc4)n3)n2)c(OC)c1OC [II-32] | 
> 1 | > 1 |  | > 1 | COc1cccc(Nc2ncnc(Nc3nccc(-c4ccc(OC)c(OC)c4OC)n3)n2)c1 [II-33] | 
 | > 1 | > 5 | 0.1 to 1 | COc1ccc(-c2ccc(C)c(Nc3nccc(-c4ccc(OC)c(OC)c4OC)n3)c2)cc1 [II-44] | 
 |  | > 5 | 0.1 to 1 | CCOc1cccc(-c2ccc(C)c(Nc3nccc(-c4ccc(OC)c(OC)c4OC)n3)c2)c1 [II-59] | 
 |  | > 5 | 0.1 to 1 | COc1ccc(-c2ccnc(Nc3cc(-c4cccnc4)ccc3C)n2)c(OC)c1OC [II-60] | 
 |  | > 5 | 0.1 to 1 | COc1ccc(-c2ccnc(Nc3cc(CO)ccc3C)n2)c(OC)c1OC [II-61] | 

SMILES | Ki [1] [µM] | Ki [2] [µM] | Ki [3] [µM] | Ki [4] [µM] | Activity in the JNK3 Inhibition Assay (percent inhibition rating D-F) ([1]; at a 2 μM inhibitor concentration)
COc1cc(-c2ccnc(Nc3nc4ccccc4[nH]3)n2)cc(OC)c1OC [Compound I-65] |  | < 0.1 | > 5 |  | D (percent inhibition less than or equal to 33%)
